Experimental data as given in patent US9770026B2, “Substituted pyrimidine compound and uses thereof” (Shenyang Sinochem Agrochemicals R&D Co., Ltd., priority 2012, dated 2017).

Experiments:
cucumber gray mold = assay: fungicidal activity in vitro (inhibition rate) against cucumber gray mold; type: cell-based; conditions: 25 ppm, in vitro; read-out: inhibition rate against cucumber gray mold
rice blast = assay: microbe, parasite or virus in culture; type: cell-based; conditions: Pyricularia oryzae; for inhibition at 25 ppm: read-out: inhibition rate against rice blast, 25 ppm, in vitro; for inhibition at 8.3 ppm: read-out: inhibition rate against rice blast, 8.3 ppm, in vitro
cucumber downy mildew = assay: protectant activity in vivo against cucumber downy mildew; conditions: Cucumis sativus, 168 h; for pest or weed control at 6.25 µg/mL: read-out: control effect against cucumber downy mildew (%), 6.25 mg/L; for pest or weed control at 12.5 µg/mL: read-out: control effect against cucumber downy mildew (%), 12.5 mg/L; for pest or weed control at 25 µg/mL: read-out: control effect against cucumber downy mildew (%), 25 mg/L; for pest or weed control at 50 µg/mL: read-out: control effect against cucumber downy mildew (%), 50 mg/L; for pest or weed control at 100 µg/mL: read-out: control effect against cucumber downy mildew (%), 100 mg/L; for pest or weed control at 400 µg/mL: read-out: control effect against cucumber downy mildew (%), 400 mg/L; for pest or weed control at 100 ppm: read-out: protectant activity against cucumber downy mildew in vivo, 100 ppm; for pest or weed control at 400 ppm: read-out: protectant activity against cucumber downy mildew in vivo, 400 ppm
wheat powdery mildew = assay: protectant activity in vivo against wheat powdery mildew; conditions: Triticum aestivum, 168 h; for pest or weed control at 6.25 µg/mL: read-out: control effect against wheat powdery mildew (%), 6.25 mg/L; for pest or weed control at 6.25 µg/mL / pest or weed control at 25 µg/mL / pest or weed control at 100 µg/mL / pest or weed control at 400 µg/mL / pest or weed control at 0.4 µg/mL / pest or weed control at 1.6 µg/mL: protectant activity; for pest or weed control at 25 µg/mL: read-out: control effect against wheat powdery mildew (%), 25 mg/L; for pest or weed control at 100 µg/mL: read-out: control effect against wheat powdery mildew (%), 100 mg/L; for pest or weed control at 400 µg/mL: read-out: control effect against wheat powdery mildew (%), 400 mg/L; for pest or weed control at 0.4 µg/mL: read-out: control effect against wheat powdery mildew (%), 0.4 mg/L; for pest or weed control at 1.6 µg/mL: read-out: control effect against wheat powdery mildew (%), 1.6 mg/L; for pest or weed control at 6.25 ppm: read-out: protectant activity against wheat powdery mildew in vivo, 6.25 ppm; for pest or weed control at 25 ppm: read-out: protectant activity against wheat powdery mildew in vivo, 25 ppm; for pest or weed control at 100 ppm: read-out: protectant activity against wheat powdery mildew in vivo, 100 ppm; for pest or weed control at 400 ppm: read-out: protectant activity against wheat powdery mildew in vivo, 400 ppm
corn rust = assay: protectant activity in vivo against corn rust; conditions: Zea mays, 168 h; for pest or weed control at 6.25 µg/mL: read-out: control effect against corn rust (%), 6.25 mg/L; for pest or weed control at 25 µg/mL: read-out: control effect against corn rust (%), 25 mg/L; for pest or weed control at 100 µg/mL: read-out: control effect against corn rust (%), 100 mg/L; for pest or weed control at 400 µg/mL: read-out: control effect against corn rust (%), 400 mg/L; for pest or weed control at 6.25 ppm: read-out: protectant activity against corn rust in vivo, 6.25 ppm; for pest or weed control at 25 ppm: read-out: protectant activity against corn rust in vivo, 25 ppm; for pest or weed control at 100 ppm: read-out: protectant activity against corn rust in vivo, 100 ppm; for pest or weed control at 400 ppm: read-out: protectant activity against corn rust in vivo, 400 ppm
armyworm = assay: bioactivity test against armyworm, airbrush spray; type: in vivo; conditions: 72 h; for pest or weed control at 600 µg/mL: 600 mg/L
Diamond back moth = assay: insecticidal activity against diamond back moth, airbrush spray; type: in vivo; conditions: 72 h; for pest or weed control at 600 ppm: mortality after 72 hrs, read-out: control (test results against diamond back moth)
How it was run: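 Airbrush leaf-disc spray test: both faces of 2 cm cabbage discs received 0.5 ml of test solution at 0.7 kg/cm^2. Solutions were made in acetone:methanol (1:1) and brought to concentration with 0.1% Tween 80 in water. Ten second-instar larvae per disc, triplicates, were held at 25° C and 60˜70% R.H., with mortality recorded at 72 hrs.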

[1] = tested on: Green peach aphids (Myzus Persicae Sulzer); assay: bioactivity test against green peach aphid, airbrush foliar spray; type: in vivo; conditions: Myzus persicae, foliar, 48 h; for pest or weed control at 10 µg/mL: 10 mg/L; for pest or weed control at 100 µg/mL: 100 mg/L; for pest or weed control at 600 µg/mL: 600 mg/L
How it was run: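 Aphids (15-30 per cabbage leaf disc) on moist filter paper were airbrush-sprayed at 10 psi, 0.5 mL, with compound from acetone:methanol (1:1) diluted in water with 0.1% tween 80. Held at 25±1 C, 60±5% RH; survivors counted after 48 hrs to give death rates.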

carmine spider mite = assay: bioactivity test against carmine spider mite, airbrush spray; type: in vivo; conditions: Tetranychus cinnabarinus, 72 h
How it was run: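 Broadbean seedlings infested with adult mites were sprayed with compound (acetone/methanol stock diluted in 0.1% Tween 80 water) by airbrush at 0.7 kg/cm^2, 0.5 ml. Three replicates were run. Mortality was scored after 72 hrs.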

[2] = read-out: Insecticidal activity against armyworm (%)
[3] = contrastive test, read-out: Insecticidal activity against peach aphid (%)

Row | Structure (SMILES) | inhibition at 25 ppm (cucumber gray mold) | inhibition at 25 ppm (rice blast) | pest or weed control at 6.25 µg/mL (wheat powdery mildew) | pest or weed control at 25 µg/mL (wheat powdery mildew) | pest or weed control at 100 µg/mL (wheat powdery mildew) | pest or weed control at 400 µg/mL (wheat powdery mildew) | pest or weed control at 6.25 µg/mL (corn rust; protectant activity) | pest or weed control at 25 µg/mL (corn rust; protectant activity) | pest or weed control at 100 µg/mL (corn rust; protectant activity) | pest or weed control at 400 µg/mL (corn rust; protectant activity) | pest or weed control at 6.25 ppm (corn rust) | pest or weed control at 25 ppm (corn rust) | pest or weed control at 100 ppm (corn rust) | pest or weed control at 400 ppm (corn rust) | pest or weed control at 600 ppm (armyworm; mortality after 72 h) | pest or weed control at 100 ppm ([1]; death rate after 48 hrs) | pest or weed control at 600 ppm ([1]; death rate after 48 hrs) | pest or weed control at 600 ppm (carmine spider mite; mortality after 72 hrs) | pest or weed control at 400 ppm (wheat powdery mildew) | pest or weed control at 100 ppm (cucumber downy mildew) | further results
1 | CC(F)c1ncnc(NCCc2ccc(Oc3ccc(C(F)(F)F)cc3)cc2)c1Cl (stereo not shown) [CK1, reference compound] | 0% | 0% | 80% | 100% | 100% | 100% | – | – | – | – | – | – | – | – | – | – | – | – | – | – | pest or weed control at 3.125 µg/mL (cucumber downy mildew; read-out: control effect against cucumber downy mildew (%), 3.125 mg/L, protectant activity): 20%; pest or weed control at 6.25 µg/mL (cucumber downy mildew; protectant activity): 30%; pest or weed control at 12.5 µg/mL (cucumber downy mildew; protectant activity): 50%; pest or weed control at 25 µg/mL (cucumber downy mildew; protectant activity): 100%; pest or weed control at 50 µg/mL (cucumber downy mildew; protectant activity): 100%; pest or weed control at 100 µg/mL (cucumber downy mildew; protectant activity): 100%; pest or weed control at 400 µg/mL (cucumber downy mildew; protectant activity): 100%
2 | CCc1ncnc(NC(C)c2ccc(Oc3ccc(C(F)(F)F)cc3)cc2)c1Cl (stereo not shown) [CK47, reference compound] | 0% | < 50% | – | – | – | – | 0% | 0% | 30% | 80% | – | – | – | – | – | – | – | – | – | – | pest or weed control at 10 µg/mL (armyworm; 10 mg/L, read-out: Insecticidal activity against armyworm (%)): 0%; pest or weed control at 100 µg/mL (armyworm; 100 mg/L, read-out: Insecticidal activity against armyworm (%)): 25%; pest or weed control at 600 µg/mL (armyworm; [2]): 86%; inhibition at 8.3 ppm (rice blast): 0%
3 | CCc1ncnc(NCc2ccc(Oc3ccc(C(F)(F)F)cc3Cl)cc2)c1Cl [CK48, reference compound] | 0% | < 50% | 0% | 0% | 0% | 30% | 0% | 0% | 20% | 60% | – | – | – | – | – | – | – | – | – | – | pest or weed control at 600 µg/mL (Diamond back moth; 600 mg/L): 40%; pest or weed control at 600 µg/mL (armyworm; [2]): 50%; pest or weed control at 10 µg/mL [1, 3]: 0%; pest or weed control at 100 µg/mL [1, 3]: 87%; pest or weed control at 600 µg/mL [1, 3]: 100%; inhibition at 8.3 ppm (rice blast): 0%
4 | FC(F)c1ncnc(NCCc2ccc(Oc3ccc(C(F)(F)F)cn3)cc2)c1Cl [Compound I-2342] | 100% | 80 to 99% | 100% | 100% | 100% | 100% | – | – | – | – | 100% | 100% | 100% | 100% | 100% | 100% | 100% | 100% | 100% | – | pest or weed control at 10 ppm ([1]; death rate after 48 hrs): 100%; pest or weed control at 100 ppm (carmine spider mite; mortality after 72 hrs): 100%; pest or weed control at 0.4 µg/mL (wheat powdery mildew): 60%; pest or weed control at 1.6 µg/mL (wheat powdery mildew): 95%; pest or weed control at 6.25 ppm (wheat powdery mildew): 100%; pest or weed control at 25 ppm (wheat powdery mildew): 100%; pest or weed control at 100 ppm (wheat powdery mildew): 100%
5 | Cc1ncnc(NCCc2ccc(Oc3ccc(C(F)(F)F)cc3)cc2)c1Cl [II-69] | 80 to 99% | 80 to 99% | – | – | – | – | – | – | – | – | – | 100% | 100% | 100% | 100% | 100% | 100% | 100% | 100% | 80 to 99% | pest or weed control at 100 ppm (armyworm; 100 ppm, mortality after 72 h): 80 to 99%; pest or weed control at 2.5 µg/mL ([1]; 2.5 mg/L, contrastive test, read-out: Insecticidal activity against peach aphid (%)): 81%; pest or weed control at 5 µg/mL ([1]; 5 mg/L, contrastive test, read-out: Insecticidal activity against peach aphid (%)): 100%; pest or weed control at 10 µg/mL [1, 3]: 100%; pest or weed control at 100 µg/mL [1, 3]: 100%; pest or weed control at 600 µg/mL [1, 3]: 100%; pest or weed control at 2.5 ppm ([1]; 2.5 ppm, death rate after 48 hrs): 80 to 99%; pest or weed control at 5 ppm ([1]; 5 ppm, death rate after 48 hrs): 100%; pest or weed control at 10 ppm ([1]; death rate after 48 hrs): 100%; pest or weed control at 10 µg/mL (carmine spider mite; 10 mg/L, contrastive test, read-out: Insecticidal activity against carmine spider mite (% )): 90%; pest or weed control at 100 µg/mL (carmine spider mite; 100 mg/L, contrastive test, read-out: Insecticidal activity against carmine spider mite (% )): 100%; pest or weed control at 600 µg/mL (carmine spider mite; 600 mg/L, contrastive test, read-out: Insecticidal activity against carmine spider mite (% )): 100%; pest or weed control at 10 ppm (carmine spider mite; 10 ppm, mortality after 72 hrs): 80 to 99%; pest or weed control at 100 ppm (carmine spider mite; mortality after 72 hrs): 100%; pest or weed control at 400 ppm (cucumber downy mildew): 100%
6 | CCc1ncnc(NCCc2ccc(Oc3cc(Cl)cc(Cl)c3)cc2)c1Cl [II-303] | 100% | – | 90% | 100% | 100% | 100% | 100% | 100% | 100% | 100% | 100% | 100% | 100% | 100% | 80 to 99% | 100% | 100% | 100% | 100% | 80 to 99% | pest or weed control at 600 ppm (Diamond back moth): 80 to 99%; pest or weed control at 0.4 µg/mL (corn rust; read-out: control effect against corn rust (%), 0.4 mg/L, protectant activity): 50%; pest or weed control at 1.6 µg/mL (corn rust; read-out: control effect against corn rust (%), 1.6 mg/L, protectant activity): 80%; pest or weed control at 400 ppm (cucumber downy mildew): 100%; pest or weed control at 0.4 µg/mL (wheat powdery mildew): 25%; pest or weed control at 1.6 µg/mL (wheat powdery mildew): 80%; pest or weed control at 6.25 ppm (wheat powdery mildew): 80 to 99%; pest or weed control at 25 ppm (wheat powdery mildew): 100%; pest or weed control at 100 ppm (wheat powdery mildew): 100%
7 | FC(F)c1ncnc(NCCc2ccc(Oc3ccc(Cl)cc3Cl)nc2)c1Cl [III-622] | 80 to 99% | 80 to 99% | – | – | – | – | – | – | – | – | 80 to 99% | 100% | 100% | 100% | – | – | 100% | – | 100% | 100% | pest or weed control at 600 ppm (Diamond back moth): 100%; pest or weed control at 6.25 µg/mL (cucumber downy mildew; protectant activity): 98%; pest or weed control at 12.5 µg/mL (cucumber downy mildew; protectant activity): 100%; pest or weed control at 25 µg/mL (cucumber downy mildew; protectant activity): 100%; pest or weed control at 50 µg/mL (cucumber downy mildew; protectant activity): 100%; pest or weed control at 100 µg/mL (cucumber downy mildew; protectant activity): 100%; pest or weed control at 400 µg/mL (cucumber downy mildew; protectant activity): 100%; pest or weed control at 6.25 ppm (cucumber downy mildew; read-out: protectant activity against cucumber downy mildew in vivo, 6.25 ppm): 80 to 99%; pest or weed control at 12.5 ppm (cucumber downy mildew; read-out: protectant activity against cucumber downy mildew in vivo, 12.5 ppm): 100%; pest or weed control at 25 ppm (cucumber downy mildew; read-out: protectant activity against cucumber downy mildew in vivo, 25 ppm): 100%; pest or weed control at 50 ppm (cucumber downy mildew; read-out: protectant activity against cucumber downy mildew in vivo, 50 ppm): 100%; pest or weed control at 400 ppm (cucumber downy mildew): 100%
